Data published in patent US8859768B2, “Heteroaryls and uses thereof” (Millennium Pharmaceuticals, Inc., priority 2010, dated 2014).

Biological target: T1, Human VPS34 (Homo sapiens, UniProt Q8NEB9)
T1 construct: GST (N); host or cells: SF9 insect cells (baculovirus)
Experiment: Human VPS34 Enzyme Assay (Adapta TR-FRET)
Format: biochemical
Details: compound at 1.111 μM; read-out: Average VPS34 % INH @ 1.111 μM
Protocol: VPS34 (accession number GB:BC033004) was cloned into pDEST20-Thombin as N-terminal GST tagged fusion proteins using the Gateway system (Invitrogen, catalog#11804-013). The sequences were verified before recombinant protein expression using the Baculovirus Expression System with Gateway® Technology.
For expression VPS34 was infected at 1MOI in SF9 cells and harvested 72 hours post infection.
For purification, VPS34 is purified by Glutathione Sepharose 4 Fast Flow (GE Healthcare #17-5132-03) followed by HiTrap Q (GE Healthcare #17-1153-01).
Human VPS34 Enzyme Assay Method
100 nL compounds in DMSO are added to wells of a 384 well microtitre plate (Greiner 780076). At room temperature: 5 ul VPS34 reaction buffer (Invitrogen Assay Buffer Q (diluted 1 in 5 with nanopure water) plus 2 mM DTT and 2 mM MnCl2) containing ATP (20 uM, Promega) and 200 uM PI-PS substrate (Invitrogen PV5122) is added followed immediately by 5 ul VPS34 reaction buffer (as above) containing VPS34 (5 nM, Millennium Protein Sciences Group) and the mixture is incubated with shaking at room temperature for 1 hour. Then 5 ul VPS34 stop-detect mix (as per Invitrogen Adapta Assay kit (PV5009) instructions (contains kinase quench buffer, TR-FRET buffer, Adapta Eu anti-ADP antibody and Alexa Fluor 647 ADP tracer)) is added to quench the reaction. The plates are then incubated for 30 minutes at room temperature with shaking and then read on a BMG PheraStar Plus reader.
3) VPS34 is assayed using Adapta™ Universal Kinase Assay Kit (Invitrogen).

T1 sequence (Q8NEB9 whole entry): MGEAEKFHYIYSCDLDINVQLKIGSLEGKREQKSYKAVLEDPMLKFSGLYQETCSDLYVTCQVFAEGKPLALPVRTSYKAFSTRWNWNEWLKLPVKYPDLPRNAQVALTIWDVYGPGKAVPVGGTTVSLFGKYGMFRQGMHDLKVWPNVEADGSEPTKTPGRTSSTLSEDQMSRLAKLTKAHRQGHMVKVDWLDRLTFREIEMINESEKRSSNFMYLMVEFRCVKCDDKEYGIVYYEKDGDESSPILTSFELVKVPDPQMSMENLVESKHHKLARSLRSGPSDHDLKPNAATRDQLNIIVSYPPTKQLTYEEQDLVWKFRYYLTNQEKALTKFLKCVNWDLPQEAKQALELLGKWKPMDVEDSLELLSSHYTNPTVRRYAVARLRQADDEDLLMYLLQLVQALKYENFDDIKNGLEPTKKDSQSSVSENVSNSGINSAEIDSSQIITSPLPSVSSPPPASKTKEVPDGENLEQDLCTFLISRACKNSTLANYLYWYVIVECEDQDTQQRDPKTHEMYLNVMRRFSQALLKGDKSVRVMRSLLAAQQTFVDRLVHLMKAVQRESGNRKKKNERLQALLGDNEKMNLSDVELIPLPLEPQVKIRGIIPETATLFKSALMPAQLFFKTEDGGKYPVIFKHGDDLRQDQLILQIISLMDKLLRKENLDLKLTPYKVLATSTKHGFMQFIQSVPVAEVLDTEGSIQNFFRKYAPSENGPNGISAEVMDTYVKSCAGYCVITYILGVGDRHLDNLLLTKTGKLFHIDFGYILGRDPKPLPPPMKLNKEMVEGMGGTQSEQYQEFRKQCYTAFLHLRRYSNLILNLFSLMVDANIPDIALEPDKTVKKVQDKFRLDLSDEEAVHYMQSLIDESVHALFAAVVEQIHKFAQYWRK

| Compound | inhibition at 1.111 µM [%] |
| --- | --- |
| COCCNC(=O)c1nc(-c2cc(NC(C)=O)ncc2C)oc1-c1ccccc1Cl [Compound I-64, 2-(2-acetamido-5-methylpyridin-4-yl)-5-(2-chlorophenyl)-N-(2-methoxyethyl)-1,3-oxazole-4-carboxamide] | 64 |
| CC(C)CC(=O)Nc1cc(-c2nc(-c3nnc[nH]3)c(-c3ccccc3Cl)o2)ccn1 [Compound I-65, N-{4-[5-(2-chlorophenyl)-4-(4H-1,2,4-triazol-3-yl)-1,3-oxazol-2-yl]pyridin-2-yl}-3-methylbutanamide] | 21 |
| O=C(Cc1ccccc1)Nc1cc(-c2nc(-c3nnc[nH]3)c(-c3ccccc3Cl)o2)ccn1 [Compound I-67, N-{4-[5-(2-chlorophenyl)-4-(4H-1,2,4-triazol-3-yl)-1,3-oxazol-2-yl]pyridin-2-yl}-2-phenylacetamide] | 39 |
| CC(=O)Nc1cc(-c2cc(C(=O)NCc3cccnc3)c(-c3ccccc3Cl)o2)c(C)cn1 [Compound I-68, 5-(2-acetamido-5-methylpyridin-4-yl)-2-(2-chlorophenyl)-N-(pyridin-3-ylmethyl)-3-furamide] | 104 |
| CC(=O)Nc1cc(-c2cc(-c3ncco3)c(-c3ccccc3Cl)o2)c(C)cn1 [Compound I-69, N-{4-[5-(2-chlorophenyl)-4-(1,3-oxazol-2-yl)-2-furyl]-5-methylpyridin-2-yl}acetamide] | 144 |
| CC(=O)Nc1cc(-c2nc(C(=O)NCCn3ccnc3)c(-c3ccccc3Cl)o2)c(C)cn1 [Compound I-70, 2-(2-acetamido-5-methylpyridin-4-yl)-5-(2-chlorophenyl)-N-[2-(1H-imidazol-1-yl)ethyl]-1,3-oxazole-4-carboxamide] | 45 |
| Clc1ccccc1-c1oc(-c2ccnc3[nH]ccc23)nc1-c1nnc[nH]1 [Compound I-71, 4-[5-(2-chlorophenyl)-4-(4H-1,2,4-triazol-3-yl)-1,3-oxazol-2-yl]-1H-pyrrolo[2,3-b]pyridine] | 87 |
| CC(=O)Nc1cc(-c2cc(C(=O)NC(C)C)c(-c3ccccc3Cl)o2)c(C)cn1 [Compound I-72, 5-(2-acetamido-5-methylpyridin-4-yl)-2-(2-chlorophenyl)-N-isopropyl-3-furamide] | 78 |
| CC(=O)Nc1cc(-c2nc(C(=O)N(C)C)c(-c3ccccc3Cl)o2)c(C)cn1 [Compound I-73, 2-(2-acetamido-5-methylpyridin-4-yl)-5-(2-chlorophenyl)-N,N-dimethyl-1,3-oxazole-4-carboxamide] | 115 |
| CC(=O)Nc1cc(-c2nc(C(=O)NC3CCC3)c(-c3ccccc3Cl)o2)c(C)cn1 [Compound I-74, 2-(2-acetamido-5-methylpyridin-4-yl)-5-(2-chlorophenyl)-N-cyclobutyl-1,3-oxazole-4-carboxamide] | 28 |
| CCC(=O)Nc1cc(-c2nc(-c3nnc[nH]3)c(-c3ccccc3Cl)o2)ccn1 [Compound I-75, N-{4-[5-(2-chlorophenyl)-4-(4H-1,2,4-triazol-3-yl)-1,3-oxazol-2-yl]pyridin-2-yl}propanamide] | 114 |
| CCCC(=O)Nc1cc(-c2nc(-c3nnc[nH]3)c(-c3ccccc3Cl)o2)ccn1 [Compound I-76, N-{4-[5-(2-chlorophenyl)-4-(4H-1,2,4-triazol-3-yl)-1,3-oxazol-2-yl]pyridin-2-yl}butanamide] | 79 |
| Cc1cnc(NC(=O)C2CC2)cc1-c1nc(-c2nnc[nH]2)c(-c2ccccc2Cl)o1 [Compound I-77, N-{4-[5-(2-chlorophenyl)-4-(4H-1,2,4-triazol-3-yl)-1,3-oxazol-2-yl]-5-methylpyridin-2-yl}cyclopropanecarboxamide] | 120 |
| CC(=O)Nc1cc(-c2nc(-c3ccccc3Cl)c(-c3ccccn3)o2)c(C)cn1 [Compound I-78, N-{4-[4-(2-chlorophenyl)-5-(pyridin-2-yl)-1,3-oxazol-2-yl]-5-methylpyridin-2-yl}acetamide] | 43 |
| CC(=O)Nc1cc(-c2nc(N3CCCC(N(C)C)C3)c(-c3nnc[nH]3)o2)c(C)cn1 (stereo not drawn) [Compound I-79, N-(4-{4-[3-(dimethylamino)piperidin-1-yl]-5-(4H-1,2,4-triazol-3-yl)-1,3-oxazol-2-yl}-5-methylpyridin-2-yl)acetamide] | 82 |
| CC(=O)Nc1cc(-c2cc(C(=O)NCCC(C)C)c(-c3ccccc3Cl)o2)c(C)cn1 [Compound I-80, 5-(2-acetamido-5-methylpyridin-4-yl)-2-(2-chlorophenyl)-N-(3-methylbutyl)-3-furamide] | 92 |
| CCNC(=O)c1cc(-c2cc(NC(C)=O)ncc2C)oc1-c1ccccc1Cl [Compound I-81, 5-(2-acetamido-5-methylpyridin-4-yl)-2-(2-chlorophenyl)-N-ethyl-3-furamide] | 112 |
| CC(=O)Nc1cc(-c2nc(C(=O)NCCc3cn4ccccc4n3)c(-c3ccccc3Cl)o2)c(C)cn1 [Compound I-82, 2-(2-acetamido-5-methylpyridin-4-yl)-5-(2-chlorophenyl)-N-[2-(imidazo[1,2-a]pyridin-2-yl)ethyl]-1,3-oxazole-4-carboxamide] | 68 |
| CC(=O)Nc1cc(-c2cc(C(N)=O)c(-c3ccccc3Cl)o2)c(C)cn1 [Compound I-83, 5-(2-acetamido-5-methylpyridin-4-yl)-2-(2-chlorophenyl)-3-furamide] | 130 |
| CC(=O)Nc1cc(-c2cc(C(=O)NCCCN3CCCC3)c(-c3ccccc3Cl)o2)c(C)cn1 [Compound I-84, 5-(2-acetamido-5-methylpyridin-4-yl)-2-(2-chlorophenyl)-N-[3-(pyrrolidin-1-yl)propyl]-3-furamide] | 54 |
| CC(=O)Nc1cc(-c2cc(C(=O)NCc3ccc(N(C)C)cc3)c(-c3ccccc3Cl)o2)c(C)cn1 [Compound I-85, 5-(2-acetamido-5-methylpyridin-4-yl)-2-(2-chlorophenyl)-N-[4-(dimethylamino)benzyl]-3-furamide] | 56 |
| Cc1cnc(NC(=O)C2CC2)cc1-c1nc(C(N)=O)c(-c2ccccc2Cl)o1 [Compound I-86, 5-(2-chlorophenyl)-2-{2-[(cyclopropylcarbonyl)amino]-5-methylpyridin-4-yl}-1,3-oxazole-4-carboxamide] | 117 |
| COCC(=O)Nc1cc(-c2nc(-c3nnc[nH]3)c(-c3ccccc3Cl)o2)ccn1 [Compound I-87, N-{4-[5-(2-chlorophenyl)-4-(4H-1,2,4-triazol-3-yl)-1,3-oxazol-2-yl]pyridin-2-yl}-2-methoxyacetamide] | 109 |
| CC(=O)Nc1cc(-c2cc(C(=O)NCc3ccco3)c(-c3ccccc3Cl)o2)c(C)cn1 [Compound I-88, 5-(2-acetamido-5-methylpyridin-4-yl)-2-(2-chlorophenyl)-N-(2-furylmethyl)-3-furamide] | 114 |
